Assay results: ChEMBL document CHEMBL5365420, “Kinetics, Thermodynamics, and Structural Effects of Quinoline-2-Carboxylates, Zinc-Binding Inhibitors of New Delhi Metallo-β-lactamase-1 Re-sensitizing Multidrug-Resistant Bacteria for Carbapenems” (J Med Chem, 2023)

Tests used:
[1] = Inhibition of VIM-2 (unknown origin) incubated for 15 mins by absorbance based microplate reader analysis; design: species or system Bacteria
Escherichia coli [2] = assay: Antibacterial activity against clinical isolate Escherichia coli ST1012/10 expressing blaNDM-1 co-expressing blaTEM-1/blaCTX-M-15/blaOXA-1 and blaOXA-2 assessed as meropenem MIC at 29.60 uM measured after 20 hrs by broth microdilution assay (reference value: 12 mg/L); format: functional; settings: dose 29.6 µM
[3] = Inhibition of GIM1 (unknown origin) incubated for 15 mins by absorbance based microplate reader analysis; design: species or system Bacteria
Escherichia coli [4] = assay: Antibacterial activity against clinical isolate Escherichia coli 371/12 expressing blaNDM-7 co-expressing blaCTX-M-15 and blaOXA-1 assessed as meropenem MIC at 29.60 uM measured after 20 hrs by broth microdilution assay (reference value: 12 mg/L); format: functional; settings: dose 29.6 µM
[5] = biological target: T1, 72 kDa type IV collagenase (Homo sapiens, UniProt P08253); assay: Inhibition of human recombinant MMP-2 CD at 10 uM using OMNIMMP as substrate incubated for 30 mins by fluorescence based analysis relative to control
Target sequence in this assay (P08253 110-660 limits assumed): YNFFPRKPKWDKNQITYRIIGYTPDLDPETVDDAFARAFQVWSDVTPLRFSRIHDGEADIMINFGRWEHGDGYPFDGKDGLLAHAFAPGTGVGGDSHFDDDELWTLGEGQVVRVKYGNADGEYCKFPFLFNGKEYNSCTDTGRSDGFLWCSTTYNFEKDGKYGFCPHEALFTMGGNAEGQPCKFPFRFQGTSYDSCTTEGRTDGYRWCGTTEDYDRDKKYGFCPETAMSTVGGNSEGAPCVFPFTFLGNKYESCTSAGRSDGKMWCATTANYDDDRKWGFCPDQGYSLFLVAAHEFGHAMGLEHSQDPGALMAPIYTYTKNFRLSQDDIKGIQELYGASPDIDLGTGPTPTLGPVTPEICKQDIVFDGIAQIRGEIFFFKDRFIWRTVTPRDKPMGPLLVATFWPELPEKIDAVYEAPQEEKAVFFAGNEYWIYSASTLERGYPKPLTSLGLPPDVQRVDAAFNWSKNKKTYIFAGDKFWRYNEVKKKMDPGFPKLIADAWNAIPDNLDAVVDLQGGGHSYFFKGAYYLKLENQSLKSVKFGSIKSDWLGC

Klebsiella pneumoniae [6] = assay: Antibacterial activity against clinical isolate Klebsiella pneumoniae 50/20 expressing blaNDM-5 co-expressing blaTEM-1 and blaSHV-1 assessed as meropenem MIC at 59.20 uM measured after 20 hrs by broth microdilution assay (reference value: 24 mg/L); format: functional; settings: dose 59.2 µM
Escherichia coli [7] = assay: Antibacterial activity against clinical isolate Escherichia coli K12 J53-ST10 699/15 expressing blaNDM-1 assessed as meropenem MIC at 29.60 uM measured after 20 hrs by broth microdilution assay (reference value: 12 mg/L); format: functional; settings: dose 29.6 µM
Escherichia coli [8] = assay: Antibacterial activity against clinical isolate Escherichia coli K12 J53-ST10 696/17 expressing blaNDM-1 co-expressing blaCMY-4 assessed as meropenem MIC at 59.20 uM measured after 20 hrs by broth microdilution assay (reference value: 24 mg/L); format: functional; settings: dose 59.2 µM
Klebsiella pneumoniae [9] = assay: Antibacterial activity against clinical isolate Klebsiella pneumoniae ST23213/19 expressing blaNDM-1 co-expressing blaOXA-48/blaSHV-11/blaCTX-M-15 and blaOXA-1 assessed as meropenem MIC at 59.20 uM measured after 20 hrs by broth microdilution assay (reference value: 24 mg/L); format: functional; settings: dose 59.2 µM
[10] = biological target: T1, 72 kDa type IV collagenase; assay: Binding affinity to human recombinant MMP-2 CD assessed as inhibition constant using OMNIMMP as substrate incubated for 30 mins by fluorescence based analysis
Target sequence in this assay (P08253 whole entry): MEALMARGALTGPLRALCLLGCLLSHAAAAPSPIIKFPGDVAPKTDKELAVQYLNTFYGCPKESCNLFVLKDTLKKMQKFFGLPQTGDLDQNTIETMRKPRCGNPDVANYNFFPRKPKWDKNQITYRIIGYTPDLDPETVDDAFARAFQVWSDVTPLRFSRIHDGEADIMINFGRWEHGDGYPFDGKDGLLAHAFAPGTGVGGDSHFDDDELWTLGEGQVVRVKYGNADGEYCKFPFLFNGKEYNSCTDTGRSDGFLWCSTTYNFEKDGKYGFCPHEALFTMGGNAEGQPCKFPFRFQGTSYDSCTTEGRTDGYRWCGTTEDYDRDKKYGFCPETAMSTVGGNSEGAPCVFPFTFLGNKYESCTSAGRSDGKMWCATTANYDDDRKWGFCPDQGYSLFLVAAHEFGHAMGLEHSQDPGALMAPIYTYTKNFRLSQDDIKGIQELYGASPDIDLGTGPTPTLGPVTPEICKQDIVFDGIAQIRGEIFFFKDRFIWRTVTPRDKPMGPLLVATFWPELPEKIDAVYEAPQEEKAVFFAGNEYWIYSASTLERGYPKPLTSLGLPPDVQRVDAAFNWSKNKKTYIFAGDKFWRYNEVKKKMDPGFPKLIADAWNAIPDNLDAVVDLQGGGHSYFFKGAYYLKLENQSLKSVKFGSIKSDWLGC

Escherichia coli [11] = assay: Antibacterial activity against clinical isolate Escherichia coli 371/12 expressing blaNDM-7 co-expressing blaCTX-M-15 and blaOXA-1 assessed as meropenem MIC at 59.20 uM measured after 20 hrs by broth microdilution assay (reference value: 24 mg/L); format: functional; settings: dose 59.2 µM
Klebsiella pneumoniae [12] = assay: Antibacterial activity against clinical isolate Klebsiella pneumoniae ST23213/19 expressing blaNDM-1 co-expressing blaOXA-48/blaSHV-11/blaCTX-M-15 and blaOXA-1 assessed as meropenem MIC at 29.60 uM measured after 20 hrs by broth microdilution assay (reference value: 12 mg/L); format: functional; settings: dose 29.6 µM
[13] = biological target: Carbonic anhydrase 2 (Homo sapiens) (UniProt P00918); assay: Inhibition of human CA2 at 10 uM using pNPA as substrate preincubated for 15 mins followed by substrate by absorbance based analysis relative to control
Klebsiella pneumoniae [14] = assay: Antibacterial activity against clinical isolate Klebsiella pneumoniae 62/07 expressing blaVIM-19 co-expressing blaSHV-1/blaCTX-M-14 and blaCMY-4 assessed as meropenem MIC at 29.60 uM measured after 20 hrs by broth microdilution assay (reference value: 12 mg/L); format: functional; settings: dose 29.6 µM
Escherichia coli [15] = assay: Antibacterial activity against clinical isolate Escherichia coli ST1012/10 expressing blaNDM-1 co-expressing blaTEM-1/blaCTX-M-15/blaOXA-1 and blaOXA-2 assessed as meropenem MIC at 59.20 uM measured after 20 hrs by broth microdilution assay (reference value: 24 mg/L); format: functional; settings: dose 59.2 µM
Klebsiella pneumoniae [16] = assay: Antibacterial activity against clinical isolate Klebsiella pneumoniae 50/11 expressing blaNDM-1 co-expressing blaTEM-1/blaSHV-28/blaTEM-1/blaCTX-M-15 and blaOXA-1 assessed as meropenem MIC at 29.60 uM measured after 20 hrs by broth microdilution assay (reference value: 12 mg/L); format: functional; settings: dose 29.6 µM
Acinetobacter baumannii [17] = assay: Antibacterial activity against clinical isolate Acinetobacter baumannii IC 19/09 expressing blaNDM-1 co-expressing blaOXA-64 assessed as meropenem MIC at 29.60 uM measured after 20 hrs by broth microdilution assay (reference value: 12 mg/L); format: functional; settings: dose 29.6 µM
Klebsiella pneumoniae [18] = assay: Antibacterial activity against clinical isolate Klebsiella pneumoniae ST1493/10 expressing blaNDM-1 co-expressing blaCMY-2like/blaTEM-1/blaCTX-M-15/blaSHV-28/blaOXA-1 and blaOXA-9 assessed as meropenem MIC at 59.20 uM measured after 20 hrs by broth microdilution assay (reference value: 24 mg/L); format: functional; settings: dose 59.2 µM
Klebsiella pneumoniae [19] = assay: Antibacterial activity against clinical isolate Klebsiella pneumoniae ST1493/10 expressing blaNDM-1 co-expressing blaCMY-2like/blaTEM-1/blaCTX-M-15/blaSHV-28/blaOXA-1 and blaOXA-9 assessed as meropenem MIC at 29.60 uM measured after 20 hrs by broth microdilution assay (reference value: 12 mg/L); format: functional; settings: dose 29.6 µM
Klebsiella pneumoniae [20] = assay: Antibacterial activity against clinical isolate Klebsiella pneumoniae 50/11 expressing blaNDM-1 co-expressing blaTEM-1/blaSHV-28/blaTEM-1/blaCTX-M-15 and blaOXA-1 assessed as meropenem MIC at 59.20 uM measured after 20 hrs by broth microdilution assay (reference value: 24 mg/L); format: functional; settings: dose 59.2 µM
Escherichia coli [21] = assay: Antibacterial activity against clinical isolate Escherichia coli K12 J53-ST10 696/17 expressing blaNDM-1 co-expressing blaCMY-4 assessed as meropenem MIC at 29.60 uM measured after 20 hrs by broth microdilution assay (reference value: 12 mg/L); format: functional; settings: dose 29.6 µM
Escherichia coli [22] = assay: Antibacterial activity against clinical isolate Escherichia coli K12 J53-ST10 618/15 expressing blaNDM-1 assessed as meropenem MIC at 29.60 uM measured after 20 hrs by broth microdilution assay (reference value: 12 mg/L); format: functional; settings: dose 29.6 µM
Escherichia coli [23] = assay: Antibacterial activity against clinical isolate Escherichia coli K12 J53-ST10 618/15 expressing blaNDM-1 assessed as meropenem MIC at 59.20 uM measured after 20 hrs by broth microdilution assay (reference value: 24 mg/L); format: functional; settings: dose 59.2 µM
Escherichia coli [24] = assay: Antibacterial activity against clinical isolate Escherichia coli K12 J53-ST10 699/15 expressing blaNDM-1 assessed as meropenem MIC at 59.20 uM measured after 20 hrs by broth microdilution assay (reference value: 24 mg/L); format: functional; settings: dose 59.2 µM
Klebsiella pneumoniae [25] = assay: Antibacterial activity against clinical isolate Klebsiella pneumoniae 62/07 expressing blaVIM-19 co-expressing blaSHV-1/blaCTX-M-14 and blaCMY-4 assessed as meropenem MIC at 59.20 uM measured after 20 hrs by broth microdilution assay (reference value: 24 mg/L); format: functional; settings: dose 59.2 µM
[26] = biological target: Histone deacetylase 1 (Homo sapiens) (UniProt Q13547); assay: Inhibition of C-terminal 6His/FLAG-tagged human recombinant full-length HDAC1 (1 to 482(end) residues) at 10 uM using Boc-Lys-(Ac)-AMC as substrate incubated for 10 mins followed by substrate addition measured after 1 hr by fluorescence based analysis relative to control; settings: time 70.0 min
Sequence of Histone deacetylase 1 (Homo sapiens) (Q13547 whole entry): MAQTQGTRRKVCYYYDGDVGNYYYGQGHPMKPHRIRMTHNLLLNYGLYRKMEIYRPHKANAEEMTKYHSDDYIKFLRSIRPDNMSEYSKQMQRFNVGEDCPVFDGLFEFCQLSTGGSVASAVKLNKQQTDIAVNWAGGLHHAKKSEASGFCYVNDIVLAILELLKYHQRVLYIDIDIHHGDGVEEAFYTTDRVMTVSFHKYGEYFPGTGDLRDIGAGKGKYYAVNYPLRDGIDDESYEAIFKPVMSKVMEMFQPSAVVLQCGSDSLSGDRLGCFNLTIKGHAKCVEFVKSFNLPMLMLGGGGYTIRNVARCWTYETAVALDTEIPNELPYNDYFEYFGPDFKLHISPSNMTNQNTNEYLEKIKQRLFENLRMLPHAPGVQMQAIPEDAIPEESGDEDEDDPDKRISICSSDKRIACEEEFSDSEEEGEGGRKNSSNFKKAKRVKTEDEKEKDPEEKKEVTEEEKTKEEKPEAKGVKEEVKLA

Escherichia coli [27] = assay: Antibacterial activity against clinical isolate Escherichia coli K12 J53-ST10 684/18 expressing blaNDM-1 co-expressing blaCMY-2 and blaOXA-10 assessed as meropenem MIC at 59.20 uM measured after 20 hrs by broth microdilution assay (reference value: 24 mg/L); format: functional; settings: dose 59.2 µM
Klebsiella pneumoniae [28] = assay: Antibacterial activity against clinical isolate Klebsiella pneumoniae 50/20 expressing blaNDM-5 co-expressing blaTEM-1 and blaSHV-1 assessed as meropenem MIC at 29.60 uM measured after 20 hrs by broth microdilution assay (reference value: 12 mg/L); format: functional; settings: dose 29.6 µM
Acinetobacter baumannii [29] = assay: Antibacterial activity against clinical isolate Acinetobacter baumannii IC 19/09 expressing blaNDM-1 co-expressing blaOXA-64 assessed as meropenem MIC at 59.20 uM measured after 20 hrs by broth microdilution assay (reference value: 24 mg/L); format: functional; settings: dose 59.2 µM
[30] = Inhibition of IMP-1 (unknown origin) expressed in Escherichia coli BL21-DE3 incubated for 15 mins by absorbance based microplate reader analysis; design: species or system Bacteria
Escherichia coli [31] = assay: Antibacterial activity against clinical isolate Escherichia coli K12 J53-ST10 684/18 expressing blaNDM-1 co-expressing blaCMY-2 and blaOXA-10 assessed as meropenem MIC at 29.60 uM measured after 20 hrs by broth microdilution assay (reference value: 12 mg/L); format: functional; settings: dose 29.6 µM

Row | Structure (SMILES) | IC50 [1] | MIC (Escherichia coli [2]) | MIC (Escherichia coli [4]) | inhibition [5] | MIC (Klebsiella pneumoniae [6]) | MIC (Escherichia coli [7]) | MIC (Escherichia coli [8]) | MIC (Klebsiella pneumoniae [9]) | Ki [10] | MIC (Escherichia coli [11]) | MIC (Klebsiella pneumoniae [12]) | inhibition [13] | MIC (Klebsiella pneumoniae [14]) | MIC (Escherichia coli [15]) | MIC (Klebsiella pneumoniae [16]) | MIC (Acinetobacter baumannii [17]) | MIC (Klebsiella pneumoniae [18]) | MIC (Klebsiella pneumoniae [19]) | MIC (Klebsiella pneumoniae [20]) | MIC (Escherichia coli [21]) | further results
1 | O=C(O)c1ccc2c(-c3ccccc3)ccc(NS(=O)(=O)c3ccccn3)c2n1 | 400 nM | 0.5 µg/mL | 32 µg/mL | > 90% | ≤ 0.125 µg/mL | 1 µg/mL | ≤ 0.125 µg/mL | 16 µg/mL | 7750 nM | ≤ 0.125 µg/mL | 16 µg/mL | < 5% | 8 µg/mL | ≤ 0.125 µg/mL | 0.5 µg/mL | 16 µg/mL | 1 µg/mL | 4 µg/mL | 0.25 µg/mL | 0.25 µg/mL | IC50 [3]: 650 nM; MIC (Escherichia coli [22]): ≤ 0.125 µg/mL; MIC (Escherichia coli [23]): ≤ 0.125 µg/mL; MIC (Escherichia coli [24]): ≤ 0.125 µg/mL; MIC (Klebsiella pneumoniae [25]): 0.25 µg/mL; inhibition [26]: < 5%; MIC (Escherichia coli [27]): ≤ 0.125 µg/mL; MIC (Klebsiella pneumoniae [28]): 2 µg/mL; MIC (Acinetobacter baumannii [29]): 1 µg/mL; IC50 [30]: 690 nM; MIC (Escherichia coli [31]): 0.5 µg/mL
2 | O=C(O)c1cc(-c2ccccc2)c2cccc(NS(=O)(=O)c3ccccn3)c2n1 | 610 nM | 1 µg/mL | 32 µg/mL | > 90% | ≤ 0.125 µg/mL | 1 µg/mL | ≤ 0.125 µg/mL | 16 µg/mL | 6920 nM | ≤ 0.125 µg/mL | 32 µg/mL | < 5% | 8 µg/mL | ≤ 0.125 µg/mL | 0.5 µg/mL | 8 µg/mL | 1 µg/mL | 4 µg/mL | ≤ 0.125 µg/mL | ≤ 0.125 µg/mL | MIC (Escherichia coli [22]): ≤ 0.125 µg/mL; MIC (Escherichia coli [23]): ≤ 0.125 µg/mL; MIC (Escherichia coli [24]): ≤ 0.125 µg/mL; MIC (Klebsiella pneumoniae [25]): 0.5 µg/mL; inhibition [26]: < 5%; MIC (Escherichia coli [27]): ≤ 0.125 µg/mL; MIC (Klebsiella pneumoniae [28]): 2 µg/mL; MIC (Acinetobacter baumannii [29]): 1 µg/mL; IC50 [30]: 250 nM; MIC (Escherichia coli [31]): 0.25 µg/mL
